From patent publication US20230278972A1, “SUBSTITUTED HALOALKYL SULFONANILIDE HERBICIDES” (FMC Corporation, priority 2020, published 2023)

Legend:
Type in all cases: in vivo
[1] = test system: Ryegrass, Italian (Italian ryegrass, Lolium multiflorum); experiment: Test A preemergence, Ryegrass, Italian; conditions: Preemergence, 0 to 100 scale (0 no effect, 100 complete control)
Summary of the method: (§1)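 Postemergence ratings come from foliar sprays onto one- to two-leaf plants of 2 to 10 cm grown in loam/sand; preemergence ratings come from a directed spray onto the soil of newly seeded pots. Formulation was a surfactant-containing non-phytotoxic solvent blend.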

[2] = test system: blackgrass (Alopecurus myosuroides); experiment: Test A postemergence, blackgrass; conditions: Postemergence, 0 to 100 scale (0 no effect, 100 complete control); for Plant response rating, Blackgrass: 125 g ai/ha; for Blackgrass plant response rating: 500 g ai/ha, visual injury vs untreated controls after approx. 10 days
Summary of the method: as §1

[3] = test system: Ryegrass, Italian (Italian ryegrass, Lolium multiflorum); experiment: Test A postemergence, Ryegrass, Italian; conditions: Postemergence, 0 to 100 scale (0 no effect, 100 complete control); for Plant response rating, Ryegrass, Italian: 125 g ai/ha; for Ryegrass, Italian plant response rating: 500 g ai/ha, visual injury vs untreated controls after approx. 10 days
Summary of the method: as §1

kochia (Bassia scoparia) [4] = experiment: Test A postemergence, kochia; conditions: Postemergence, 0 to 100 scale (0 no effect, 100 complete control); for Plant response rating, Kochia: 125 g ai/ha; for Kochia plant response rating: 500 g ai/ha, visual injury vs untreated controls after approx. 10 days
Summary of the method: as §1

[5] = test system: ragweed (common ragweed, Ambrosia artemisiifolia); experiment: Test A postemergence, ragweed; conditions: Postemergence, 0 to 100 scale (0 no effect, 100 complete control); for Plant response rating, Ragweed: 125 g ai/ha; for Ragweed plant response rating: 500 g ai/ha, visual injury vs untreated controls after approx. 10 days
Summary of the method: as §1

[6] = test system: ragweed (common ragweed, Ambrosia artemisiifolia); experiment: Test A preemergence, ragweed; conditions: Preemergence, 0 to 100 scale (0 no effect, 100 complete control)
Summary of the method: as §1

[7] = test system: wheat (Triticum aestivum); experiment: Test A postemergence, wheat; conditions: Postemergence, 0 to 100 scale (0 no effect, 100 complete control); for Plant response rating, Wheat: 125 g ai/ha; for Wheat plant response rating: 500 g ai/ha, visual injury vs untreated controls after approx. 10 days
Summary of the method: (§2)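 Preemergence: seeded pots of loam plus sand received a directed soil spray. Postemergence: seedlings at one to two leaves, 2 to 10 cm high, were oversprayed. Each compound was formulated in a non-phytotoxic solvent mix that included a surfactant.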

[8] = test system: pigweed (Amaranthus retroflexus); experiment: Test A postemergence, pigweed; conditions: Postemergence, 0 to 100 scale (0 no effect, 100 complete control); for Plant response rating, Pigweed: 125 g ai/ha; for Pigweed plant response rating: 500 g ai/ha, visual injury vs untreated controls after approx. 10 days
Summary of the method: as §1

kochia (Bassia scoparia) [9] = experiment: Test A preemergence, kochia; conditions: Preemergence, 0 to 100 scale (0 no effect, 100 complete control)
Summary of the method: as §1

[10] = test system: galium (catchweed bedstraw, Galium aparine); experiment: Test A postemergence, galium; conditions: Postemergence, 0 to 100 scale (0 no effect, 100 complete control); for Plant response rating, Galium: 125 g ai/ha; for Galium plant response rating: 500 g ai/ha, visual injury vs untreated controls after approx. 10 days
Summary of the method: as §2

[11] = test system: Foxtail, Giant (giant foxtail, Setaria faberi); experiment: Test A preemergence, Foxtail, Giant; conditions: Preemergence, 0 to 100 scale (0 no effect, 100 complete control)
Summary of the method: as §1

[12] = test system: barnyardgrass (Echinochloa crus-galli); experiment: Test A postemergence, barnyardgrass; conditions: Postemergence, 0 to 100 scale (0 no effect, 100 complete control); for Plant response rating, Barnyardgrass: 125 g ai/ha; for Barnyardgrass plant response rating: 500 g ai/ha, visual injury vs untreated controls after approx. 10 days
Summary of the method: as §2

corn (Zea mays) = experiment: Test A postemergence, corn; conditions: Postemergence, 0 to 100 scale (0 no effect, 100 complete control); for Plant response rating, Corn: 125 g ai/ha; for Corn plant response rating: 500 g ai/ha, visual injury vs untreated controls after approx. 10 days
Summary of the method: as §1

[13] = test system: pigweed (Amaranthus retroflexus); experiment: Test A preemergence, pigweed; conditions: 0 to 100 scale (0 no effect, 100 complete control)
Summary of the method: as §2

[14] = test system: Foxtail, Giant (giant foxtail, Setaria faberi); experiment: Test A postemergence, Foxtail, Giant; conditions: Postemergence, 0 to 100 scale (0 no effect, 100 complete control); for Plant response rating, Foxtail, Giant: 125 g ai/ha; for Foxtail, Giant plant response rating: 500 g ai/ha, visual injury vs untreated controls after approx. 10 days
Summary of the method: as §1

[15] = test system: barnyardgrass (Echinochloa crus-galli); experiment: Test A preemergence, barnyardgrass; conditions: Preemergence, 0 to 100 scale (0 no effect, 100 complete control)
Summary of the method: as §1

[16] = 125 g ai/ha, visual injury, approx. 10 days

| Compound | Plant response rating, Ryegrass, Italian [1, 16] | Plant response rating, Ryegrass, Italian ([1]; 500 g ai/ha) | Plant response rating, Blackgrass [2] | Blackgrass plant response rating [2] | Plant response rating, Ryegrass, Italian [3] | Ryegrass, Italian plant response rating [3] | Plant response rating, Kochia (kochia (Bassia scoparia) [4]) | Kochia plant response rating (kochia (Bassia scoparia) [4]) | Plant response rating, Ragweed [5] | Ragweed plant response rating [5] | Plant response rating, Ragweed [6, 16] | Plant response rating, Ragweed ([6]; 500 g ai/ha) | Plant response rating, Wheat [7] | Wheat plant response rating [7] | Plant response rating, Pigweed [8] | Pigweed plant response rating [8] | Plant response rating, Kochia (kochia (Bassia scoparia) [9]; [16]) | Plant response rating, Kochia (kochia (Bassia scoparia) [9]; 500 g ai/ha) | Plant response rating, Galium [10] | Galium plant response rating [10] | also measured |
| --- | --- | --- | --- | --- | --- | --- | --- | --- | --- | --- | --- | --- | --- | --- | --- | --- | --- | --- | --- | --- | --- |
| Cc1cc(C)c(N(S(=O)(=O)C(F)(F)F)S(=O)(=O)C(F)(F)F)cc1C1=NOC2(CCCC2)C1 [Compound 208] | 70 | 80 | 0 | 20 | 0 | 40 | 10 | 30 | 20 | 20 | 0 | 0 | 0 | 50 | 20 | 50 | 90 | 90 | 30 | 70 | Plant response rating, Foxtail, Giant [11, 16]: 90; Plant response rating, Foxtail, Giant ([11]; 500 g ai/ha): 100; Plant response rating, Barnyardgrass [12]: 0; Barnyardgrass plant response rating [12]: 30; Plant response rating, Corn (corn (Zea mays)): 0; Corn plant response rating (corn (Zea mays)): 20; Plant response rating, Pigweed [13, 16]: 60; Plant response rating, Pigweed ([13]; 500 g ai/ha): 70; Plant response rating, Foxtail, Giant [14]: 0; Foxtail, Giant plant response rating [14]: 40; Plant response rating, Barnyardgrass [15, 16]: 90; Plant response rating, Barnyardgrass ([15]; 500 g ai/ha): 90 |
| CCN(CC)C(=O)c1cc(NS(=O)(=O)C(F)(F)F)c(C)cc1C [Compound 188] | 50 | 100 | 0 | 0 | 0 | 40 | 0 | 0 | 20 | 70 | 40 | 50 | 40 | 70 | 20 | 80 | 20 | 60 | 40 | 50 | Plant response rating, Foxtail, Giant [11, 16]: 0; Plant response rating, Foxtail, Giant ([11]; 500 g ai/ha): 100; Plant response rating, Barnyardgrass [12]: 10; Barnyardgrass plant response rating [12]: 70; Plant response rating, Corn (corn (Zea mays)): 10; Corn plant response rating (corn (Zea mays)): 30; Plant response rating, Pigweed [13, 16]: 50; Plant response rating, Pigweed ([13]; 500 g ai/ha): 90; Plant response rating, Foxtail, Giant [14]: 0; Foxtail, Giant plant response rating [14]: 20; Plant response rating, Barnyardgrass [15, 16]: 60; Plant response rating, Barnyardgrass ([15]; 500 g ai/ha): 90 |
